Experimental findings from patent publication US20240316047A1, “INHIBITORS OF RNA HELICASE DHX9 AND USES THEREOF” (ACCENT THERAPEUTICS, INC., priority 2022, published 2024) are described below.

In one assay the target is Human recombinant DHX9 protein (Homo sapiens (Human), UniProt Q08211). The experiment in a line: DHX9 ATPase assay (ADP-Glo). Type of assay: biochemical.
Human recombinant DHX9 protein, sequence (Q08211 whole entry): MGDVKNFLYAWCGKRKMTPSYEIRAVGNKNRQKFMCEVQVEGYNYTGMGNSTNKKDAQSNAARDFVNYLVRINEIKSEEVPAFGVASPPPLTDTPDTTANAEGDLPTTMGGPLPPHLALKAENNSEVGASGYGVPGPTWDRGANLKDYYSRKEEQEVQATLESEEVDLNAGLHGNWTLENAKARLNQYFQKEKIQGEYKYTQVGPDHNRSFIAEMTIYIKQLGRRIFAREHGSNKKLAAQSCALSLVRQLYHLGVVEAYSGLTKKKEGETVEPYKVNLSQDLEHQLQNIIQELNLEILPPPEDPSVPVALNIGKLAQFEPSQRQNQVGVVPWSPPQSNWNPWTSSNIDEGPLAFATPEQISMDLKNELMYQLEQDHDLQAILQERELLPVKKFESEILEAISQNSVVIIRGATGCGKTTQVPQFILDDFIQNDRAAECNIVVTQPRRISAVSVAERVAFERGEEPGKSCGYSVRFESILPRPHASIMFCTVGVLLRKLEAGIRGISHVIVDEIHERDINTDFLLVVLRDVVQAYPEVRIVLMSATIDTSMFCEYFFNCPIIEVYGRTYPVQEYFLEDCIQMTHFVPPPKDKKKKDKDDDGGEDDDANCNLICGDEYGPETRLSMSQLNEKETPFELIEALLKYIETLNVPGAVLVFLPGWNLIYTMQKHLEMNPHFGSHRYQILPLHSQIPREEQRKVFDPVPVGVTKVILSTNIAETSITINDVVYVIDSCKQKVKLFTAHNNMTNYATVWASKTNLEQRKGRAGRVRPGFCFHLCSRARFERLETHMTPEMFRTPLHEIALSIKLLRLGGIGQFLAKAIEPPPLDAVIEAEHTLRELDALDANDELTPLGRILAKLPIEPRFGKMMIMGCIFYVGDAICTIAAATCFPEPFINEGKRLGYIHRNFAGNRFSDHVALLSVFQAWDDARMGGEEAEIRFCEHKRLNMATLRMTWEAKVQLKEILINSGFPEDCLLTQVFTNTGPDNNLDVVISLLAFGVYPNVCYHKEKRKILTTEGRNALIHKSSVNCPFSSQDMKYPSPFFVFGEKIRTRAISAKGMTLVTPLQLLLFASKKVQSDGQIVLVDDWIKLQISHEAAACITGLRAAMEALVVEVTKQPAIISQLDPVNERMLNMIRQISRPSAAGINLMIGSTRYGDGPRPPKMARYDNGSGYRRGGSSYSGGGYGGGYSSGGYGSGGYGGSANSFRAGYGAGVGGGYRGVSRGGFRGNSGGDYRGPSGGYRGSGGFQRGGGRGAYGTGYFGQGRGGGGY
Settings: not given
For orientation: In ADP-Glo the light output rises with the ADP produced.
With `CSc1cccnc1-n1cc(C(=O)Nc2cc(Cl)cc(NS(C)(=O)=O)c2)cn1` [Example 219], the “DHX9 Biochemical Max Inhibition” value is reported as 62.3%.

On to `CS(=O)(=O)Nc1cc(Cl)cc(NC(=O)c2cc(-c3ncccc3NC(=O)C3CC3)cs2)c1` [Example 220], for which the “DHX9 Biochemical Max Inhibition” value is 79.7%.

For `CN(C)C(=O)Cc1cccnc1-c1csc(C(=O)Nc2cc(Cl)cc(NS(C)(=O)=O)c2)c1` [Example 221], the “DHX9 Biochemical Max Inhibition” value is 78.3%.

As to `CN(C)C(=O)c1cccnc1-c1csc(C(=O)Nc2cc(Cl)cc(NS(C)(=O)=O)c2)c1` [Example 222], the “DHX9 Biochemical Max Inhibition” value worked out at 78.7%.

As for `CS(=O)(=O)Nc1cc(Cl)cc(NC(=O)c2cc(-c3ncccc3C(F)(F)F)cs2)c1` [Example 223], the “DHX9 Biochemical Max Inhibition” value is reported as 75.7%.

As to `CCS(=O)(=O)Nc1cc(Cl)cc(NC(=O)c2cc(-c3ncccc3C)cs2)c1` [Example 224], the “DHX9 Biochemical Max Inhibition” value is listed as 67.3%.

As to `CS(=O)(=O)Nc1cc(Cl)cc(NC(=O)c2cc(-c3ncc(F)cc3OCc3cncc(F)c3)cs2)c1` [Example 225], the “DHX9 Biochemical Max Inhibition” value stood at 74.2%.

In the case of `CCS(=O)(=O)Nc1cc(Cl)cc(NC(=O)c2cc(-c3ncc(F)cc3C)cs2)c1` [Example 226], the “DHX9 Biochemical Max Inhibition” value turned out to be 73.6%.

Turning to `Cc1sc(C(=O)Nc2cc(Cl)cc(NS(C)(=O)=O)c2)cc1-c1ncccc1O` [Example 227], the “DHX9 Biochemical Max Inhibition” value turned out to be 70.6%.

`CS(=O)(=O)Nc1cc(Cl)cc(NC(=O)c2cc(-c3ncccc3COc3cc(F)cc(F)c3)cs2)c1` [Example 228]: the “DHX9 Biochemical Max Inhibition” value came to 67.2%.

As for `CS(=O)(=O)Nc1cc(Cl)cc(NC(=O)c2cc3ccncc3s2)c1` [Example 230], the “DHX9 Biochemical Max Inhibition” value worked out at 65.9%.

For `CC(C)c1sc(C(=O)Nc2cc(Cl)cc(NS(C)(=O)=O)c2)cc1-c1ccccn1` [Example 233], the “DHX9 Biochemical Max Inhibition” value came to 80.3%.

Regarding `COCc1sc(C(=O)Nc2cc(Cl)cc(NS(C)(=O)=O)c2)cc1-c1ccccn1` [Example 234], the “DHX9 Biochemical Max Inhibition” value is on record as 84.6%.

Turning to `Cc1sc(C(=O)Nc2cc(Cl)cc(NS(C)(=O)=O)c2)cc1-c1cn(Cc2ccccc2)nn1` [Example 235], the “DHX9 Biochemical Max Inhibition” value is on record as 78.1%.

As to `Cc1sc(C(=O)Nc2cc(Cl)cc(NS(C)(=O)=O)c2)cc1-c1cn(-c2ccccc2)nn1` [Example 236], the “DHX9 Biochemical Max Inhibition” value was 68.9%.

As for `CS(=O)(=O)Nc1cc(Cl)cc(NC(=O)c2cc(-c3ncccc3Nc3ncccn3)cs2)c1` [Example 237], the “DHX9 Biochemical Max Inhibition” value was 73.5%.

For `CN(c1ncccn1)c1cccnc1-c1csc(C(=O)Nc2cc(Cl)cc(NS(C)(=O)=O)c2)c1` [Example 238], the “DHX9 Biochemical Max Inhibition” value was determined as 72.9%.

With `CS(=O)(=O)Nc1cc(Cl)cc(NC(=O)c2cc(-c3ncccc3Oc3cccnc3)cs2)c1` [Example 239], the “DHX9 Biochemical Max Inhibition” value is listed as 67.7%.

As to `Cc1sc(C(=O)Nc2cc(Cl)cc(NS(C)(=O)=O)c2)cc1-c1c(F)cccc1OCc1ccccc1` [Example 240], the “DHX9 Biochemical Max Inhibition” value worked out at 71%.

Take `CS(=O)(=O)Nc1cc(Cl)cc(NC(=O)c2cc(Br)cs2)c1` [Example 241]: the “DHX9 Biochemical Max Inhibition” value was found to be 63.8%.

As to `COC(=O)[C@@H]1CCCN1c1csc(C(=O)Nc2cc(Cl)cc(NS(C)(=O)=O)c2)c1` [Example 242], the “DHX9 Biochemical Max Inhibition” value was 69.7%.

For the compound `CS(=O)(=O)Nc1cc(Cl)cc(NC(=O)c2cc(C3CCNCC3)cs2)c1` [Example 243], the “DHX9 Biochemical Max Inhibition” value is recorded as 73.2%.

Regarding `CS(=O)(=O)Nc1cc(Cl)cc(NC(=O)c2cc(N3CCNCC3)cs2)c1` [Example 244], the “DHX9 Biochemical Max Inhibition” value is 71.9%.

`CS(=O)(=O)Nc1cc(Cl)cc(NC(=O)c2cc(N3CCOCC3)cs2)c1` [Example 245]: the “DHX9 Biochemical Max Inhibition” value is on record as 71.4%.

Turning to `CS(=O)(=O)Nc1cc(Cl)cc(NC(=O)c2cc(N3CCN(CC(F)(F)F)CC3)cs2)c1` [Example 246], the “DHX9 Biochemical Max Inhibition” value was found to be 67.5%.

In the case of `Cc1cc(C(=O)Nc2cc(Cl)cc(NS(=O)(=O)C3CC3)c2)cn1-c1ccc(N2CCOCC2)cn1` [Example 247], the “DHX9 Biochemical Max Inhibition” value is listed as 70%.

The same assay, now with this note: read-out: DHX9 Biochemical Inflection Point.
Consider `CSc1cccnc1-n1cc(C(=O)Nc2cc(Cl)cc(NS(C)(=O)=O)c2)cn1` [Example 219], for which the IC50 worked out at 40.6 nM.

On to `CS(=O)(=O)Nc1cc(Cl)cc(NC(=O)c2cc(-c3ncccc3NC(=O)C3CC3)cs2)c1` [Example 220], for which the IC50 was found to be 16 nM.

As for `CN(C)C(=O)Cc1cccnc1-c1csc(C(=O)Nc2cc(Cl)cc(NS(C)(=O)=O)c2)c1` [Example 221], the IC50 is 6.6 nM.

`CN(C)C(=O)c1cccnc1-c1csc(C(=O)Nc2cc(Cl)cc(NS(C)(=O)=O)c2)c1` [Example 222]: the IC50 came out at 17.7 nM.

For `CS(=O)(=O)Nc1cc(Cl)cc(NC(=O)c2cc(-c3ncccc3C(F)(F)F)cs2)c1` [Example 223], the IC50 stood at 56.5 nM.

As for `CCS(=O)(=O)Nc1cc(Cl)cc(NC(=O)c2cc(-c3ncccc3C)cs2)c1` [Example 224], the IC50 was 6.4 nM.

As to `CS(=O)(=O)Nc1cc(Cl)cc(NC(=O)c2cc(-c3ncc(F)cc3OCc3cncc(F)c3)cs2)c1` [Example 225], the IC50 amounted to 6.9 nM.

On to `CCS(=O)(=O)Nc1cc(Cl)cc(NC(=O)c2cc(-c3ncc(F)cc3C)cs2)c1` [Example 226], for which the IC50 was found to be 8.4 nM.

As for `Cc1sc(C(=O)Nc2cc(Cl)cc(NS(C)(=O)=O)c2)cc1-c1ncccc1O` [Example 227], the IC50 turned out to be 7.2 nM.

As for `CS(=O)(=O)Nc1cc(Cl)cc(NC(=O)c2cc(-c3ncccc3COc3cc(F)cc(F)c3)cs2)c1` [Example 228], the IC50 came out at 65.5 nM.

Regarding `CS(=O)(=O)Nc1cc(Cl)cc(NC(=O)c2cc3ccncc3s2)c1` [Example 230], the IC50 amounted to 93 nM.

Take `CC(C)c1sc(C(=O)Nc2cc(Cl)cc(NS(C)(=O)=O)c2)cc1-c1ccccn1` [Example 233]: the IC50 is 45.5 nM.

Consider `COCc1sc(C(=O)Nc2cc(Cl)cc(NS(C)(=O)=O)c2)cc1-c1ccccn1` [Example 234], for which the IC50 was determined as 9.5 nM.

With `Cc1sc(C(=O)Nc2cc(Cl)cc(NS(C)(=O)=O)c2)cc1-c1cn(Cc2ccccc2)nn1` [Example 235], the IC50 was 35.8 nM.

In the case of `Cc1sc(C(=O)Nc2cc(Cl)cc(NS(C)(=O)=O)c2)cc1-c1cn(-c2ccccc2)nn1` [Example 236], the IC50 came out at 52.1 nM.

Consider `CS(=O)(=O)Nc1cc(Cl)cc(NC(=O)c2cc(-c3ncccc3Nc3ncccn3)cs2)c1` [Example 237], for which the IC50 came out at 21 nM.

With `CN(c1ncccn1)c1cccnc1-c1csc(C(=O)Nc2cc(Cl)cc(NS(C)(=O)=O)c2)c1` [Example 238], the IC50 is 22.9 nM.

With `CS(=O)(=O)Nc1cc(Cl)cc(NC(=O)c2cc(-c3ncccc3Oc3cccnc3)cs2)c1` [Example 239], the IC50 came to 8 nM.

In the case of `Cc1sc(C(=O)Nc2cc(Cl)cc(NS(C)(=O)=O)c2)cc1-c1c(F)cccc1OCc1ccccc1` [Example 240], the IC50 came to 353 nM.

Take `CS(=O)(=O)Nc1cc(Cl)cc(NC(=O)c2cc(Br)cs2)c1` [Example 241]: the IC50 was found to be 115 nM.

For the compound `COC(=O)[C@@H]1CCCN1c1csc(C(=O)Nc2cc(Cl)cc(NS(C)(=O)=O)c2)c1` [Example 242], the IC50 worked out at 105 nM.

Take `CS(=O)(=O)Nc1cc(Cl)cc(NC(=O)c2cc(C3CCNCC3)cs2)c1` [Example 243]: the IC50 was found to be 92.3 nM.

Regarding `CS(=O)(=O)Nc1cc(Cl)cc(NC(=O)c2cc(N3CCNCC3)cs2)c1` [Example 244], the IC50 stood at 73.3 nM.

Regarding `CS(=O)(=O)Nc1cc(Cl)cc(NC(=O)c2cc(N3CCOCC3)cs2)c1` [Example 245], the IC50 worked out at 121 nM.

Regarding `CS(=O)(=O)Nc1cc(Cl)cc(NC(=O)c2cc(N3CCN(CC(F)(F)F)CC3)cs2)c1` [Example 246], the IC50 was 186 nM.

For the compound `Cc1cc(C(=O)Nc2cc(Cl)cc(NS(=O)(=O)C3CC3)c2)cn1-c1ccc(N2CCOCC2)cn1` [Example 247], the IC50 was found to be 131 nM.
